Measurements published in EP3064205A1, “Therapeutic use of isomeric forms of 2-(4-chlorophenyl)quinolin-4-yl)(piperidin-2-yl)methanol” (Glionova AB, priority 2015, dated 2016).
Like-named read-outs stand apart in the source and are kept apart here.

Tests used:
KPC cells = experiment: ATP viability assay (CellTiter-Glo), 3D culture, automatic drug screen; type: cell-based, mouse; conditions: 72h
Experimental: Panc-1, HPAF II, KPC pancreatic adenocarcinoma cell lines were trypsin-treated and counted using the Casy Cell Counter according to the manufacturer's recommendations (GmbH). Subsequently, they were seeded onto round bottom non-tissue culture treated 96 well-plates (Falcon, BD NJ, USA) at a concentration of 2500 cells/well in 100 µl DMEM-F12 or phenol red-free DMEM-F12 medium, containing 10% FCS and supplemented with 20% methyl cellulose stock solution. For preparation of methylcellulose stock solution, 6 grams of methylcellulose powder (M0512, Sigma-Aldrich) was autoclaved in a 500 ml flask containing a magnetic stirrer (the methylcellulose powder is resistant to this procedure). The autoclaved methylcellulose was dissolved in preheated 250 ml basal medium (60°C) for 20 min (using the magnetic stirrer). Thereafter, 250 ml medium (room temperature) containing double amount of FCS (20%) was added to a final volume of 500 ml and the whole solution mixed overnight at 4°C. The final stock solution was aliquoted and cleared by centrifugation (5000g, 2 h, room temperature). […]
In order to confirm the results presented in figure 1, S1 was further tested in 2 different cell lines in 3D culture format, using an automatic drug screening assay. The effect of Vacquinol-1 RS (S1) on cell viability was measured after 72h using the CellTiter-Glo assay (Promega) adapted for 3D culture.

BxPCI-2 cell line = experiment: ATP viability assay (CellTiter-Glo); type: cell-based; conditions: Homo sapiens; BxPCI-2 (wild type RAS); at 24h, 48h and 72h
From the text: (§1) The following well-characterized human pancreatic ductal adenocarcinoma cell lines (ATCC) were used: HPAF II, BxPC-3, MIA-PaCa2 and Panc-1. These cell lines were generated from patient-derived tumors and are widely used model system to study pancreatic cancer (HPAF II: Kim YW, et al. Pancreas 4: 353-362, 1989; BxPC-3: Tan MH, et al. Cancer Invest. 4: 15-23, 1986; MIA-PaCa2: Yunis AA, et al. Int. J. Cancer 19: 128-135, 1977; Pacn-1: Lieber M, et al. Int. J. Cancer 15: 741-747, 1975).
(§2) Viability assay was conducted in 96 well microtiter plates seeded with 3000 cells. Cell viability was measured using CellTiter-Glo assay (Promega), according to the manufacturer's instructions. Luminescence was measured using Victor3 FA (Perkin Elmer) microtiter plate reader. Total luminescence was normalized relative to negative control and curve fitting performed using GraphPad Prism (v6.02) software. IC50 was determined using Cell Viability assay, and data was illustrated using GraphPad Prism (version 6.02)

MIA-PaCa-2 cell line = experiment: ATP viability assay (CellTiter-Glo); type: cell-based; conditions: Homo sapiens; MIA-PaCa-2 (RAS mutation); at 24h, 48h and 72h
From the text: as §1, §2

[1] = test system: patient-derived tumor xenograft (PDX) tumor panel; experiment: 3D clonogenic assay, whole panel; type: cell-based, human; conditions: for IC50: Homo sapiens
Experimental: The anti-tumor efficacy of S1 in the patient-derived tumor xenograft (PDX) tumor panel was assessed, where the efficacy of S1 in PDX tumor panel in the 96-well format, in 10 concentrations in duplicate was performed. Colony formation of tumor cell suspensions in a soft-agar matrix was observed and quantified. The output is IC50 values and dose response-relationships based on number of colonies in control and treatment wells, as identified by an automated image analysis algorithm. Stock solution of S1 was prepared in 100% DMSO at 10 mM concentration (stored at -20°C) and reused for each experiment. Compound final test concentrations: Dilution series ½ i.e.: 50µM, 15, 5, 1.5, 0.5, 0.15, 0.05, 0.015, 0.005 and 0.0015.
Tumor xenografts (also referred to as patient-derived tumor xenografts) were passaged as subcutaneous xenografts in NMRI nu/nu mice. Tumor xenograft were removed from mice under sterile conditions, mechanically disaggregated and subsequently incubated with an enzyme cocktail consisting of collagenase type IV (41 U/mL), DNase I (125 U/mL), hyaluronidase type III (100 U/mL) and dispase II (1.0 U/mL) in RPMI 1640 medium at 37°C for 60 - 120 minutes. Cells were passed through sieves of 100 µm and 40 µm mesh size and washed with RPMI 1640 medium. The percentage of viable cells was determined in a Neubauer-hemocytometer using trypan blue exclusion. Aliquots of the cells were frozen down, and stored in liquid nitrogen.
The clonogenic assay test was carried out in 96 well plate format. For each test a frozen aliquot of tumor cells prepared from tumor xenografts was thawed and assay plates were prepared as follows: each test well contained 3 layers of equal volume, 2 layers of semi-solid medium (bottom and top layer), and one layer of medium supernatant, with or without test compound. The bottom layer consisted of 0.05 mL/well Iscove's Modified Dulbecco's Medium (Invitrogen), supplemented with 20% (v/v) fetal calf serum (Sigma), 0.01% (w/v) gentamicin (Invitrogen) and 0.75% (w/v) agar (BD Biosciences). Tumor cells were added to 0.05 mL of the same culture medium supplemented with 0.4% (w/v) agar and plated onto the bottom layer. After 24 h, test compounds were added after serial dilution in DMSO and transfer in cell culture medium, and left on the cells for the duration of the experiment (continuous exposure, 0.05 mL drug overlay). Every dish included six untreated control wells and drug-treated groups in duplicate at 10 concentrations. Cultures were incubated at 37 °C and 7.5% CO2 in a humidified atmosphere for 8 to 13 days and monitored closely for colony growth using an inverted microscope. Within this period, ex vivo tumor growth lead to the formation of colonies with a diameter of >50 µm. At the time of maximum colony formation, counts were performed with an automatic image analysis system. 24 h prior to evaluation, vital colonies were stained with a sterile aqueous solution of 2-(4-iodophenyl)-3-(4-nitrophenyl)-5-phenyltetrazolium chloride (1 mg/mL, 100 µL/well). Sigmoidal concentration-response curves were fitted to the data points obtained for each tumor model using 4 parameter non-linear curve fit (Oncotest Warehouse Software). IC50 values are reported as relative IC50 values, being the concentration of test compound that give a response (inhibition of colony formation/viability) half way between the top and bottom plateau of the sigmoidal concentration-response curve (inflection point of the curve), or as absolute IC50 values, being the concentration of test compound at the intersection of the concentration-response curves with T/C = 50%. For calculation of mean IC50 values the geometric mean was used. Results are presented as mean graph plots or heat maps (individual IC50 values relative to the geometric mean IC50 value) over all cell lines as tested.

Q: What does the source list for O[C@H](c1cc(-c2ccc(Cl)cc2)nc2ccccc12)[C@@H]1CCCCN1 [S1, (R)-(2-(4-chlorophenyl)quinolin-4-yl)((S)-piperidin-2-yl)methanol]?
A: reduction in viability (KPC cells; 10 µM): ~50%; viability compared to control (KPC cells; 30-15 µM): complete loss of viability; IC50 (BxPCI-2 cell line): 12 to 19 µM; IC50 (MIA-PaCa-2 cell line): 12 to 19 µM; IC50 ([1]; colony formation, mean over tumors, read-out: absolute mean IC50 value): 8.89 µM; IC50 ([1]; colony formation, mean over tumors, read-out: relative mean IC50 value): 8.1 µM; IC50 ([1]; geometric mean over Table 2, read-out: Mean IC50 (qeometr.) abs. IC50): 9.47 µM; IC50 ([1]; geometric mean over Table 2, read-out: Mean IC50 (qeometr.) rel. IC50): 8.7 µM; IC50 ([1]; most tumors tested, read-out: IC50): 2 to 15 µM; IC50 ([1]; three tumors: BXF1352, CXF647, LXFA289, read-out: IC50): > 15 µM; bottom plateaus of the concentration-effect curves ([1]; range over tested xenografts): 0% to 47%; IC50 lower than the mean of all tumors ([1]; sensitive tumors BXF 1258 and LXFA 526, on average): 3 fold
